The record followed here is ChEMBL document CHEMBL1909046, “DrugMatrix in vitro pharmacology data”.

The target in one data set is T1, Thromboxane-A synthase (Homo sapiens, UniProt P24557).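 Also: enzyme inhibition assay with PGH2 supplied as substrate; in other assays of this panel Not Active means under 50% inhibition at 10 µM.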
T1 sequence (P24557 whole entry): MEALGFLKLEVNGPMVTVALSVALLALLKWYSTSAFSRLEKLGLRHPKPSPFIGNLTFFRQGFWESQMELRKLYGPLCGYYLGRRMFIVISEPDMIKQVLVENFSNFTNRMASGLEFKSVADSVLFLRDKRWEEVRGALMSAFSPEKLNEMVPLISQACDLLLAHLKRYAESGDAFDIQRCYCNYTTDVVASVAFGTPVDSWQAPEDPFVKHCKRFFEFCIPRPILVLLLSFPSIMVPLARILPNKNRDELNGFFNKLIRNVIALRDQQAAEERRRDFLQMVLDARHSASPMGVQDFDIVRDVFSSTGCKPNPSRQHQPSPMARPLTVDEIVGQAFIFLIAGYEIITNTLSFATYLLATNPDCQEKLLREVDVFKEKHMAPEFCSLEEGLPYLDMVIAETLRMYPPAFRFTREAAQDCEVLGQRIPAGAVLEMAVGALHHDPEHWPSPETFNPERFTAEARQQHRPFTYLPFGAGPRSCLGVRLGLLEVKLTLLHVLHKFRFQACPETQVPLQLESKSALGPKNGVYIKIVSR
As to the kind of experiment: biochemical. In kind it is tissue-based, Platelet. The following applies: platelet.

In another data set the target is Cytochrome P450 2C9 (Homo sapiens, UniProt P11712). To be noted: bti-tn-5b1-4. Also: in other assays of this panel Not Active means under 50% inhibition at 10 µM.
The target of a further data set is Adenosine receptor A2a (Homo sapiens, UniProt P29274). The data set is described as follows: DRUGMATRIX: Adenosine A2A radioligand binding (ligand: […]). In kind it is cell membranes, HEK293, Membrane. To be noted: hek293; Not Active = under 50% inhibition at 10 µM.
Data set [1] concerns the target T2, Amine oxidase [flavin-containing] A (Homo sapiens, UniProt P21397).
T2 sequence (P21397 whole entry): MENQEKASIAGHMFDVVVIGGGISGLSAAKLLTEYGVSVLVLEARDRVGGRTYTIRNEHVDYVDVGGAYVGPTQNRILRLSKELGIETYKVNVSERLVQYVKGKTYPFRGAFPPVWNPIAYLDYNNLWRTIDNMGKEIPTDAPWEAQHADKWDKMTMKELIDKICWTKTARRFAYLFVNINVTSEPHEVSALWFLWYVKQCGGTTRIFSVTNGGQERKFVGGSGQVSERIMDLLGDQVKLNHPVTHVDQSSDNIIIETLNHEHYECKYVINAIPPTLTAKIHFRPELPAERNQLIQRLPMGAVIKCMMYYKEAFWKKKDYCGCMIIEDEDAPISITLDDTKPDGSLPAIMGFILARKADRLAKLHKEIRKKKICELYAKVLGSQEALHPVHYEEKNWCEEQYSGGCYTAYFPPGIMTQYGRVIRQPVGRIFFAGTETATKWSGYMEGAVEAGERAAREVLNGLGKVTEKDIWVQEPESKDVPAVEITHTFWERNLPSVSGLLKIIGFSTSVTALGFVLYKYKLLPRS
The data set is described as follows: DRUGMATRIX: Monoamine Oxidase MAO-A enzyme inhibition (substrate: Kynuramine). Also noted: species or system BTI-TN-5B1-4. To be noted: Not Active = under 50% inhibition at 10 µM.

A further data set addresses Nitric oxide synthase 1 (Rattus norvegicus, UniProt P29476). In kind it is tissue-based, Cerebellum.
Data set [2] concerns the target Mitogen-activated protein kinase 14 (Homo sapiens, UniProt Q16539). Also noted: species or system Escherichia coli.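 Also: inhibition of p38alpha enzyme activity in a biochemical kinase assay, with myelin basic protein serving as substrate; in other assays of this panel Not Active means under 50% inhibition at 10 µM.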

Chain of Cytochrome P450 2C9 (P11712 whole entry): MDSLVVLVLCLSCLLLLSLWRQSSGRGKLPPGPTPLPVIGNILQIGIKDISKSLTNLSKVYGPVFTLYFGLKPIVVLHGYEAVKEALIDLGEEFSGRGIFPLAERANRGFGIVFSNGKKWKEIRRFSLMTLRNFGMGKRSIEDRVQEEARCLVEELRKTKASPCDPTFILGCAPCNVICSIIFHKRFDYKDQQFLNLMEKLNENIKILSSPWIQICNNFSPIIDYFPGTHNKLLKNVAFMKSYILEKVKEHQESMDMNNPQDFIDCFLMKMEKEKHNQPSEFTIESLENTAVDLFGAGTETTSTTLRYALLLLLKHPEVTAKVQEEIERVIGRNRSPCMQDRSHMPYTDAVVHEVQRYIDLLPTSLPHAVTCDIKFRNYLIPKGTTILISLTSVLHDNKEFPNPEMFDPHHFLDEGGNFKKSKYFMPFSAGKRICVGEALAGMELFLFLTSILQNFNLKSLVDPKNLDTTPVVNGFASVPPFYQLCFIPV
Chain of Nitric oxide synthase 1 (P29476 whole entry): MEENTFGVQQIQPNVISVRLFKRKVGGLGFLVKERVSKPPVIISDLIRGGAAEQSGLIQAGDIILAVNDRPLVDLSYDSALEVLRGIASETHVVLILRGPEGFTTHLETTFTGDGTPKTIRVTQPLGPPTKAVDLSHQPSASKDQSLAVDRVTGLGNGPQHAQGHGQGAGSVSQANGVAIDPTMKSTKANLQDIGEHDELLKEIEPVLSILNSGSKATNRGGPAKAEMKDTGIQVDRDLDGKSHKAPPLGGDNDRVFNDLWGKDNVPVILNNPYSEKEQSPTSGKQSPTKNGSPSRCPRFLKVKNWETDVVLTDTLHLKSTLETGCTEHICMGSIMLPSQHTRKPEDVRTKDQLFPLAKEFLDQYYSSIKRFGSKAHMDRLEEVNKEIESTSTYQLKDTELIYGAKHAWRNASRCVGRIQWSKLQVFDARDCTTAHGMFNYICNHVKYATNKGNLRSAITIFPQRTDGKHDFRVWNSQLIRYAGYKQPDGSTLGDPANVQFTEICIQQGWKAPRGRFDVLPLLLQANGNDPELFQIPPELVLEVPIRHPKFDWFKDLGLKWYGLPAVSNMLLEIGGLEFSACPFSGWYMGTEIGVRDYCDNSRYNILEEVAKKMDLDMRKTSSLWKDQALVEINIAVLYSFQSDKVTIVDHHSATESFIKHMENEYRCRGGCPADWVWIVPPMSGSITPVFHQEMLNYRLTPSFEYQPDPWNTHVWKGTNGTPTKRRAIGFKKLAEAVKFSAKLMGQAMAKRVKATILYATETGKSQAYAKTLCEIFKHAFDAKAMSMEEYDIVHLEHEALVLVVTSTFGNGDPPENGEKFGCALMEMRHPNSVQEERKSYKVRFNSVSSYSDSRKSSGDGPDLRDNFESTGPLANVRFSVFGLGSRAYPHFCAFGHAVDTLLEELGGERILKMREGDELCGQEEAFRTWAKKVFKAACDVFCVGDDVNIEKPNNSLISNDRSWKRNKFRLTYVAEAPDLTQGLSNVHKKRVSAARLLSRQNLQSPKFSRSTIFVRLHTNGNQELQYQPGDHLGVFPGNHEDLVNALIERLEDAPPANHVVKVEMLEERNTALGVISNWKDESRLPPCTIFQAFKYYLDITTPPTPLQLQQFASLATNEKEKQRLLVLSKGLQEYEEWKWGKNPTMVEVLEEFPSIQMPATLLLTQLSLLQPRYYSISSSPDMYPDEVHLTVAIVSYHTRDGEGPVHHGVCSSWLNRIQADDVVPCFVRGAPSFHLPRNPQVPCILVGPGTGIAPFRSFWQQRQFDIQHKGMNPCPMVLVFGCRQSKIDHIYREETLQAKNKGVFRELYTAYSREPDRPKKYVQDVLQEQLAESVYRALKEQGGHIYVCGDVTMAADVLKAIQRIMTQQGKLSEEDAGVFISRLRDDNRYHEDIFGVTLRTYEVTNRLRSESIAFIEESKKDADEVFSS
Chain of Mitogen-activated protein kinase 14 (Q16539 whole entry): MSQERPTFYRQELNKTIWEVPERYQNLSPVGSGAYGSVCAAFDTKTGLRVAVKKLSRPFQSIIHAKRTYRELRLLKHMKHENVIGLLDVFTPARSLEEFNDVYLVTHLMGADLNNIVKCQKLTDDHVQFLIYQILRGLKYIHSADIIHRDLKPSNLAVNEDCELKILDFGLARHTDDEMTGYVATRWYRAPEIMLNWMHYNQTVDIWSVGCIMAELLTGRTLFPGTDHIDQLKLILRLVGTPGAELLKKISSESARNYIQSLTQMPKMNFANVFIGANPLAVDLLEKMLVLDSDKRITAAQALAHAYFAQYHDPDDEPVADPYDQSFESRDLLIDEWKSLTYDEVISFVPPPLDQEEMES
Chain of Adenosine receptor A2a (P29274 whole entry): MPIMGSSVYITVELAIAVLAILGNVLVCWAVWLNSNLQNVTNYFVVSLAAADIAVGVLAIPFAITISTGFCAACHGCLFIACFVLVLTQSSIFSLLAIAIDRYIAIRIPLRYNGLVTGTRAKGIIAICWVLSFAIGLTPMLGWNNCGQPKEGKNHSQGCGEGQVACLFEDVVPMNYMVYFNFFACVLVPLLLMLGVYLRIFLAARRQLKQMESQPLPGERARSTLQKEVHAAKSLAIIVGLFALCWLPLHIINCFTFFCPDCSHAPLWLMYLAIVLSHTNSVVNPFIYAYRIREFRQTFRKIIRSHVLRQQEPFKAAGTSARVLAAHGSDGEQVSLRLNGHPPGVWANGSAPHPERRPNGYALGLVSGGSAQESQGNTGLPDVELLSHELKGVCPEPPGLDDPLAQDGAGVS

As usually defined, the IC50 is the concentration at which inhibition is half-maximal. Take `C[C@@H]1O[C@@H](O[C@H]2C[C@@H](O)[C@]3(CO)[C@H]4[C@H](O)C[C@]5(C)[C@@H](C6=CC(=O)OC6)CC[C@]5(O)[C@@H]4CC[C@]3(O)C2)[C@H](O)[C@H](O)[C@H]1O` [OUABAIN]: the IC50 result (against Thromboxane-A synthase; against Cytochrome P450 2C9; at Adenosine receptor A2a; in data set [1] (bti-tn-5b1-4); against Nitric oxide synthase 1; in data set [2]) was “Not Active” in each case. Besides, at Cytochrome P450 2C9, the Ki entry is “Not Active”.
For the compound `NC(=O)N1c2ccccc2CC(=O)c2ccccc21` [OXCARBAZEPINE], the IC50 result (against Thromboxane-A synthase; at Cytochrome P450 2C9; at Adenosine receptor A2a; in data set [1] (bti-tn-5b1-4); on Nitric oxide synthase 1; in data set [2]) was “Not Active” throughout. Besides, the Ki result at Cytochrome P450 2C9 is “Not Active”.
For `COc1ccnc(C[S+]([O-])c2nc3ccc(OC(F)F)cc3[nH]2)c1OC` (centres undefined) [PANTOPRAZOLE], the concentration for half-maximal inhibition (IC50) result (against Thromboxane-A synthase; at Cytochrome P450 2C9; at Adenosine receptor A2a; in data set [1] (bti-tn-5b1-4); against Nitric oxide synthase 1; in data set [2]) was “Not Active” each time. Also, the Ki result at Cytochrome P450 2C9 is on record as “Not Active”.
In the case of `CCc1ccc(CCOc2ccc(CC3SC(=O)NC3=O)cc2)nc1` (centres undefined) [PIOGLITAZONE], the half-inhibitory concentration (IC50) result against Thromboxane-A synthase was “Not Active”; against Cytochrome P450 2C9, “Not Active”; at Adenosine receptor A2a, “Not Active”; in data set [1] (read-out: IC50), 35.1 µM; against Nitric oxide synthase 1 it was “Not Active”; in data set [2], “Not Active”. Further, the Ki entry on Cytochrome P450 2C9 was “Not Active”.
On to `CCCNC(C)C(=O)Nc1ccccc1C` (centres undefined) [PRILOCAINE], for which the IC50 result (on Thromboxane-A synthase; against Cytochrome P450 2C9; at Adenosine receptor A2a; in data set [1] (bti-tn-5b1-4); on Nitric oxide synthase 1; in data set [2]) was “Not Active” each time. Besides, the Ki entry on Cytochrome P450 2C9 is on record as “Not Active”.
On to `CCN(CC)CCNC(=O)c1ccc(N)cc1` [PROCAINAMIDE], for which the IC50 result (at Thromboxane-A synthase; against Cytochrome P450 2C9; on Adenosine receptor A2a; in data set [1] (bti-tn-5b1-4); against Nitric oxide synthase 1; in data set [2]) was “Not Active” each time. Moreover, the Ki entry at Cytochrome P450 2C9 was “Not Active”.
Consider `CCN(CC)CCCC(C)Nc1c2ccc(Cl)cc2nc2ccc(OC)cc12` (centres undefined) [QUINACRINE], for which the IC50 entry (at Thromboxane-A synthase; against Cytochrome P450 2C9; on Adenosine receptor A2a; in data set [1] (bti-tn-5b1-4); at Nitric oxide synthase 1; in data set [2]) was “Not Active” each time. For the same compound, at Cytochrome P450 2C9, the Ki entry is “Not Active”.
As for `C[C@]12C=CC(=O)C=C1CC[C@H]1[C@@H]3C[C@@H](O)[C@](O)(C(=O)CO)[C@@]3(C)C[C@H](O)[C@@]12F` [TRIAMCINOLONE], the IC50 entry (against Thromboxane-A synthase; against Cytochrome P450 2C9; on Adenosine receptor A2a; in data set [1] (bti-tn-5b1-4); on Nitric oxide synthase 1; in data set [2]) was “Not Active” each time. The Ki result at Cytochrome P450 2C9 was “Not Active”.
Regarding `CC[C@]1(O)C[C@@H]2CN(CCc3c([nH]c4ccccc34)[C@@](C(=O)OC)(c3cc4c(cc3OC)N(C)[C@H]3[C@@](O)(C(N)=O)[C@H](O)[C@]5(CC)C=CCN6CC[C@]43[C@@H]65)C2)C1` [VINDESINE], the half-maximal inhibitory concentration (IC50) entry (at Thromboxane-A synthase; against Cytochrome P450 2C9; at Adenosine receptor A2a; in data set [1] (bti-tn-5b1-4); against Nitric oxide synthase 1; in data set [2]) was “Not Active” in each case. Besides, on Cytochrome P450 2C9, the Ki result is given as “Not Active”.
For the compound `CCN(C(C)=O)c1cccc(-c2ccnc3c(C#N)cnn23)c1` [ZALEPLON], the half-maximal inhibitory concentration (IC50) entry (on Thromboxane-A synthase; against Cytochrome P450 2C9; at Adenosine receptor A2a; in data set [1] (bti-tn-5b1-4); against Nitric oxide synthase 1; in data set [2]) was “Not Active” throughout. In addition, at Cytochrome P450 2C9, the Ki entry is “Not Active”.
With COBALTOUS CHLORIDE, the IC50 result (against Thromboxane-A synthase; against Cytochrome P450 2C9; at Adenosine receptor A2a; in data set [1] (bti-tn-5b1-4); at Nitric oxide synthase 1; in data set [2]) was “Not Active” throughout. Also, the Ki result (on Thromboxane-A synthase; at Cytochrome P450 2C9; at Adenosine receptor A2a; in data set [1] (bti-tn-5b1-4); at Nitric oxide synthase 1; in data set [2]) was “Not Active” in each case.
With COLISTIN, the IC50 entry (against Thromboxane-A synthase; on Cytochrome P450 2C9; on Adenosine receptor A2a; in data set [1] (bti-tn-5b1-4); on Nitric oxide synthase 1; in data set [2]) was “Not Active” in each case. Also, the Ki result (at Thromboxane-A synthase; on Cytochrome P450 2C9; at Adenosine receptor A2a; in data set [1] (bti-tn-5b1-4); at Nitric oxide synthase 1; in data set [2]) was “Not Active” throughout.
